Assay results reported in patent US10718770B2, “Methods for screening compounds for treating or preventing a viral infection or a virus-related condition” (ABIVAX, priority 2015, dated 2020).

Assays:
[1] = tested on: alternative splicing events of endogenous genes; assay: RT-PCR analysis of global alternative splicing events in PBMC samples; assay type: cell-based, human
Description: Quantification of non-viral RNA splicing is achieved using the protocols detailed in Klinck et al. (Multiple alternative splicing markers for ovarian cancer. Cancer Res. 68, 657-663 (2008)) and Venables et al. (Cancer-associated regulation of alternative splicing. Nat. Struct. Mol. Biol. 16, 670-676 (2009)).
These 382 alternative splicing events (ASEs) represent a high throughput random snapshot of global alterations of alternative splicing. High throughput PCR analysis of these (essentially random) 382 ASEs on multiple PBMC samples was performed, either from untreated (cells) or treated with DMSO, Compound 1 or with the control antiviral drug (Darunavir). Analysis of the data allowed further stringent quality controls; ASEs were only considered if >75% of the products ran at the expected mobilities (i.e. if the reactions were pure) and if total expected PCR concentration was higher than 20 nM (i.e. if the reactions were strong) which led to 264 remaining ASEs.

[2] = tested on: primary macrophages; assay: Cell viability of primary macrophages under treatment; assay type: cell-based, human; conditions: data not shown
[3] = tested on: Rev-mediated export of viral RNA; assay: HIV reporter system (MS2-GFP) in HeLa cells: Rev-mediated export of viral RNA; assay type: cell-based; conditions: in the absence of Rev, data not shown
Description: FIG. 8. Compound 1 influences Rev-mediated HIV RNA biogenesis and export. A) Schematic representation of the HIV-1 reporter gene B) Visualization of GFP-MS2-Bound RNA in HeLa cells expressing tat, MS2-GFP and HIV-reporter transcripts in non transfected or transfected cells with Rev. Rev-transfected cells were untreated (DMSO) or treated with Compound 1. Arrow indicates transcription site. C) Quantitation of images corresponding to untreated (DMSO) or treated (Compound 1) in (B), in terms of: total GFP (upper panel) expressed in RFU or Relative Fluorescence Units; in the nucleoplasm (middle panel) expressed in Number of Foci in Rev-transfected cells; or at the start site (lower panel) expressed as a percentage of nuclei with a starting transcription point. Box-plots show the average GFP intensity (foci numbers or starting transcription point numbers) of Rev-transfected HeLa cells for each condition. Whiskers correspond to the minimum and maximum, boxes, to the 25-75 percentiles and the band inside the box, to the median. […]
Cells plated on cover slips were fixed for 10 min in 3.7% formaldehyde (in PBS) followed by a 2-min permeabilization with 0.1% Triton X-100 (in PBS) and incubation in PBS containing 0.1% bovine serum albumin. […] Cells were washed in PBS mounted with DAKO mounting medium and observed under the fluorescence microscope. […]

SMILES: FC(F)(F)Oc1ccc(Nc2ccc3cccc(Cl)c3n2)cc1 [Compound 1, 8-chloro-N-(4-(trifluoromethoxy)phenyl)quinolin-2-amine]
- global effect on pre-mRNA splicing [1]: no global effect
- cell viability [2]: not decreased
- effect on reporter cells [3]: no effect
